# In patent US20230091225A1, “Bifunctional chimeric heterocyclic compounds for targeted degradation of androgen receptors and use thereof” (HINOVA PHARMACEUTICALS INC., priority 2019, published 2023):
# pIC50: −log10 of the molar value.
# Assays:
# Format in all cases: cell-based
# LNCaP/AR cells = experiment: Inhibition of proliferation of LNCaP/AR prostate cancer cells (CCK-8); conditions: proliferation of LNCap/AR cells, 6 days, CCK-8; read-out: IC50
# androgen receptor (AR) [1] = target: T1, androgen receptor (AR) (Homo sapiens, UniProt P10275); experiment: Degradation of androgen receptor (AR) protein in VCaP cells by ELISA
# T1 sequence (P10275 1-920): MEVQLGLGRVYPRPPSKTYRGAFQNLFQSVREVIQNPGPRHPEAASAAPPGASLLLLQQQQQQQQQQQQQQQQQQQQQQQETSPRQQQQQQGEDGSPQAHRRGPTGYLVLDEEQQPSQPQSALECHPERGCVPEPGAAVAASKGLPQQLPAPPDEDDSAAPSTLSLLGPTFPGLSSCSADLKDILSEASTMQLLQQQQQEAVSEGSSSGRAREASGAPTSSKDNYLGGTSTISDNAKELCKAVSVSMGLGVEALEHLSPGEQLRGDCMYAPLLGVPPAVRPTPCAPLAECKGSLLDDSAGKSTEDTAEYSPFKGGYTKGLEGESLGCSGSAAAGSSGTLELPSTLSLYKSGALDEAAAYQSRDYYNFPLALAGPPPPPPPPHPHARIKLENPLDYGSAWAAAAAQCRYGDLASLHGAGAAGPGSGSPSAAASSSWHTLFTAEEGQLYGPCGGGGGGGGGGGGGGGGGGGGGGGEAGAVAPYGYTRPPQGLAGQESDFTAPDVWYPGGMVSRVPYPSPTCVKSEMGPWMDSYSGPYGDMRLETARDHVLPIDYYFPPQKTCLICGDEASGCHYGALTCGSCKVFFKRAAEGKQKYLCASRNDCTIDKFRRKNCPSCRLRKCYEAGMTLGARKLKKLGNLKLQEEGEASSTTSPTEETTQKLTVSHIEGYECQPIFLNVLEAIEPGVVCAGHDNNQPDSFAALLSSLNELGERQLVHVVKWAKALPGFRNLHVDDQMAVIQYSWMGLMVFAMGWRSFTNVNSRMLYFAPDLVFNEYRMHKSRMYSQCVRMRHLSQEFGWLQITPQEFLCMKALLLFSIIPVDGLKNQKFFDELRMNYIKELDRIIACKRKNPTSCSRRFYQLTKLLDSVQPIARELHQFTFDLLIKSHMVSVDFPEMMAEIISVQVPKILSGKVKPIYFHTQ
# androgen receptor (AR) [2] = target: T1, androgen receptor (AR); experiment: Degradation of androgen receptor (AR) protein in VCaP cells by Western blot; conditions: percentage of degraded AR at 100 nM, VCaP cells, 16 h
# How it was run: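 VCaP cells (5×10^5/well) were seeded overnight, then treated in duplicate for 16 h with compound in 0.1% DMSO final. Lysates (30 μg protein) were immunoblotted for AR (D6F11) with β-actin as loading control, detected by ECL chemiluminescence.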
smiles,measurement,setting,value
CC1(C)[C@H](Oc2ccc(C#N)c(Cl)c2)C(C)(C)[C@H]1N1Cc2cc(N3CCC(CN4CCN(c5cc6c(cc5F)CN([C@@H]5CCC(=O)NC5=O)C6=O)CC4)CC3)ccc2C1=O [Compound 250],pIC50,LNCaP/AR cells,6.30 to 7.00
same,% degradation,androgen receptor (AR) [1],D (key: A: >80%; B: 79%-50%; C: 49%-25%; D: <25%)
same,% degradation,androgen receptor (AR) [2],D (<25%)
